# Test results: patent US8772500B2, “TRPV3 modulators” (AbbVie Inc., priority 2011, dated 2014)
# Key:
# human TRPV3 = molecular target: T1, human TRPV3 (Homo sapiens, UniProt Q8NET8); experiment: In vitro antagonism of recombinant human TRPV3 activation (FLIPR Tetra calcium assay, 2-APB as agonist); assay type: cell-based; conditions: HEK293 cells stably expressing human TRPV3; 2-APB 80 μM; range class; read-out: IC50 (reported range)
# T1 construct: expressed in transfected cells
# T1 sequence (Q8NET8 1-790): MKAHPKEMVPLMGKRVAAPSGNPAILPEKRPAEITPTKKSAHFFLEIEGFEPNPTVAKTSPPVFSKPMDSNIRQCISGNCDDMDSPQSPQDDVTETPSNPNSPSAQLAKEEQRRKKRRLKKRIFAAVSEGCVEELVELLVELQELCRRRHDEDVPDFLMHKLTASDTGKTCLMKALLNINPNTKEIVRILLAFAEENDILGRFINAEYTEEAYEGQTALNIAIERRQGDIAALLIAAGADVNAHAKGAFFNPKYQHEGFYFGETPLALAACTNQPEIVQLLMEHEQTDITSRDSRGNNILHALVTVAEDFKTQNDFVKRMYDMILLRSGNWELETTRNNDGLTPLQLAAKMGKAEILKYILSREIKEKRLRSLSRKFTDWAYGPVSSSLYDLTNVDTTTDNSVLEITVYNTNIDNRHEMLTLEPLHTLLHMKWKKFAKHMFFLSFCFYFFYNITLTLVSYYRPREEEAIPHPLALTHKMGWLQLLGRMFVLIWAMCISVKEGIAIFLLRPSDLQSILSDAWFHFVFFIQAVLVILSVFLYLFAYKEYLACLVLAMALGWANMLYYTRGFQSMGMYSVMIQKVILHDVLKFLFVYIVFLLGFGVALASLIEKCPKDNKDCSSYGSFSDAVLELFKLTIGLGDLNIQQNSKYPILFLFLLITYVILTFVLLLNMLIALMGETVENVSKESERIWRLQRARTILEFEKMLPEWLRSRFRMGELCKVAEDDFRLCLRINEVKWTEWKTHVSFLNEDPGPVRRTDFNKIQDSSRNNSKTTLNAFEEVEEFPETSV
# In short: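 HEK293 cells stably expressing human TRPV3, loaded with Calcium-4 dye for 90-120 min; compound added 3 min before 2-APB at 80 μM (its EC80). Fluorescence (max minus min) over 10 min expressed as % of maximal 2-APB response without antagonist; IC50 mostly averaged from n≧2 runs.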
# [1] = In vitro rat microsomal stability assay; assay type: in vitro ADME, rat (Sprague-Dawley); conditions: Sprague-Dawley, rat, 0.5 h, 0.5 μM, pH 7.4
# In short: (§1)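 Liver microsomes: Sprague-Dawley rat for rat assay, human for human assay; 37 °C; NADPH cofactor, also spiked into time-zero plates.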
# [2] = In vitro human microsomal stability assay; assay type: in vitro ADME; conditions: human, 0.5 h, 0.5 μM, pH 7.4
# In short: as §1
Compound,IC50 (human TRPV3) [µM],RAT MICROSOMAL STABILITY (% REMAINING AFTER 30 MINUTES) [1] [%],HUMAN MICROSOMAL STABILITY (% REMAINING AFTER 30 MINUTES) [2] [%]
"Cc1ccccc1C1(C(O)c2ccccn2)CCC1 (stereo not drawn) [Example 7, [1-(2-methylphenyl)cyclobutyl](pyridin-2-yl)methanol]",5.1 to 20,0.32,0.15
"OC(c1ccccn1)C1(c2ccccc2OC(F)(F)F)CCC1 (stereo not drawn) [Example 10, pyridin-2-yl{1-[2-(trifluoromethoxy)phenyl]cyclobutyl}methanol]",1.1 to 5,0.62,0.42
OC(c1ccccn1)C1(c2ccc(C(F)(F)F)c(F)c2)CCC1 (stereo not drawn) [Example 17],1.1 to 5,13,21
"OC(c1ccccn1)C1(c2ccc(Oc3ccccc3)cc2)CCC1 (stereo not drawn) [Example 24, [1-(4-phenoxyphenyl)cyclobutyl](pyridin-2-yl)methanol]",1.1 to 5,17,20
"OC(c1ccccn1)C1(c2ccc(Cc3ccccc3)cc2)CCC1 (stereo not drawn) [Example 25, [1-(4-benzylphenyl)cyclobutyl](pyridin-2-yl)methanol]",1.1 to 5,1.3,21
"O[C@H](c1ccccn1)C1(c2ccc(C(F)(F)F)cc2F)CCC1 [Example 27, (S)-{1-[2-fluoro-4-(trifluoromethyl)phenyl]cyclobutyl}(pyridin-2-yl)-methanol]",1.1 to 5,15,13
"O[C@H](c1ccccn1)C1(c2ccc(C(F)(F)F)c(F)c2)CCC1 [Example 29, (S)-{1-[3-fluoro-4-(trifluoromethyl)phenyl]cyclobutyl}(pyridin-2-yl)-methanol]",1.1 to 5,45,5.3
"Cc1cccnc1[C@@H](O)C1(c2ccc(Cl)c(Cl)c2)CCC1 [Example 30, (S)-[1-(3,4-dichlorophenyl)cyclobutyl](3-methylpyridin-2-yl)methanol]",1.1 to 5,0.98,1.5
"O[C@@H](c1ncccn1)C1(c2ccc(Cl)c(Cl)c2)CCC1 [Example 40, (R)-[1-(3,4-dichlorophenyl)cyclobutyl](pyrimidin-2-yl)methanol]",5.1 to 20,5.6,68
"Cc1ccccc1C(C)C1(C(O)c2ccccn2)CCC1 (stereo not drawn) [Example 45, {1-[1-(2-methylphenyl)ethyl]cyclobutyl}(pyridin-2-yl)methanol]",1.1 to 5,0.02,0.03
"CC(c1ccc(F)cc1)C1(C(O)c2ccccn2)CCC1 (stereo not drawn) [Example 46, {1-[1-(4-fluorophenyl)ethyl]cyclobutyl}(pyridin-2-yl)methanol]",5.1 to 20,0.23,11
"CC(c1ccc(Cl)cc1)C1(C(O)c2ccccn2)CCC1 (stereo not drawn) [Example 49, {1-[1-(4-chlorophenyl)ethyl]cyclobutyl}(pyridin-2-yl)methanol]",1.1 to 5,0.13,15
"CC(c1ccccc1Cl)C1(C(O)c2ccccn2)CCC1 (stereo not drawn) [Example 50, {1-[1-(2-chlorophenyl)ethyl]cyclobutyl}(pyridin-2-yl)methanol]",1.1 to 5,0.18,0.08
"Cc1ccc(CC2(C(O)c3ccccn3)CCC2)cc1 (stereo not drawn) [Example 52, [1-(4-methylbenzyl)cyclobutyl](pyridin-2-yl)methanol]",1.1 to 5,0.05,1.7
"OC(c1ccccn1)C1(C2CCc3ccccc32)CCC1 (stereo not drawn) [Example 55, [1-(2,3-dihydro-1H-inden-1-yl)cyclobutyl](pyridin-2-yl)methanol]",5.1 to 20,0.29,1.6
"OC(c1ccccn1)C1(C2CCCc3ccccc32)CCC1 (stereo not drawn) [Example 56, pyridin-2-yl[1-(1,2,3,4-tetrahydronaphthalen-1-yl)cyclobutyl]methanol]",1.1 to 5,1.1,0.42
"OC(c1ccccn1)C1(C2CCOc3ccccc32)CCC1 (stereo not drawn) [Example 57, [1-(3,4-dihydro-2H-chromen-4-yl)cyclobutyl](pyridin-2-yl)methanol]",5.1 to 20,10,16
"OC(c1ccccn1)C1(C(c2ccccc2)C(F)(F)F)CCC1 (stereo not drawn) [Example 58, pyridin-2-yl[1-(2,2,2-trifluoro-1-phenylethyl)cyclobutyl]methanol]",1.1 to 5,33,36
"OC(c1ccccn1)C1(c2ccc(Cl)c(Cl)c2)CCOCC1 (stereo not drawn) [Example 59, [4-(3,4-dichlorophenyl)tetrahydro-2H-pyran-4-yl](pyridin-2-yl)methanol]",1.1 to 5,12,45

# Now from value to molecule:
IC50 (human TRPV3) [µM],RAT MICROSOMAL STABILITY (% REMAINING AFTER 30 MINUTES) [1] [%],HUMAN MICROSOMAL STABILITY (% REMAINING AFTER 30 MINUTES) [2] [%],Compound
0.05 to 0.5,0.73,0.13,"Cc1cccc(C2(C(O)c3ccccn3)CCC2)c1 (stereo not drawn) [Example 8, [1-(3-methylphenyl)cyclobutyl](pyridin-2-yl)methanol]"
1.1 to 5,0.18,0.12,"Cc1ccc(C2(C(O)c3ccccn3)CCC2)cc1 (stereo not drawn) [Example 9, [1-(4-methylphenyl)cyclobutyl](pyridin-2-yl)methanol]"
0.05 to 0.5,0.80,0.72,"OC(c1ccccn1)C1(c2cccc(OC(F)(F)F)c2)CCC1 (stereo not drawn) [Example 11, pyridin-2-yl{1-[3-(trifluoromethoxy)phenyl]cyclobutyl}methanol]"
0.05 to 0.5,11,24,"OC(c1ccccn1)C1(c2ccc(OC(F)(F)F)cc2)CCC1 (stereo not drawn) [Example 12, pyridin-2-yl{1-[4-(trifluoromethoxy)phenyl]cyclobutyl}methanol]"
0.501 to 1,19,7.4,"OC(c1ccccn1)C1(c2cc(C(F)(F)F)cc(C(F)(F)F)c2)CCC1 (stereo not drawn) [Example 13, {1-[3,5-bis(trifluoromethyl)phenyl]cyclobutyl}(pyridin-2-yl)methanol]"
0.05 to 0.5,1.2,5.6,"OC(c1ccccn1)C1(c2ccc(F)c(C(F)(F)F)c2)CCC1 (stereo not drawn) [Example 15, {1-[4-fluoro-3-(trifluoromethyl)phenyl]cyclobutyl}(pyridin-2-yl)methanol]"
0.501 to 1,0.69,0.12,"OC(c1ccccn1)C1(c2cccc(Oc3ccccc3)c2)CCC1 (stereo not drawn) [Example 23, [1-(3-phenoxyphenyl)cyclobutyl](pyridin-2-yl)methanol]"
0.05 to 0.5,1.0,6.3,"O[C@H](c1ccccn1)C1(c2ccc(Cl)c(Cl)c2)CCC1 [Example 26, (S)-[1-(3,4-dichlorophenyl)cyclobutyl](pyridin-2-yl)methanol]"
0.05 to 0.5,13,12,"O[C@H](c1ccccn1)C1(c2ccc(C(F)(F)F)cc2)CCC1 [Example 28, (S)-pyridin-2-yl{1-[4-(trifluoromethyl)phenyl]cyclobutyl}methanol]"
0.501 to 1,11,51,"O[C@H](c1ncccn1)C1(c2ccc(Cl)c(Cl)c2)CCC1 [Example 39, (S)-[1-(3,4-dichlorophenyl)cyclobutyl](pyrimidin-2-yl)methanol]"
